The record followed here is patent publication US20030211072A1, “Compositions with enhanced oral bioavailability” (priority 2000, published 2003).

The test system of data set [1] is rat everted gut sacs. As to the kind of experiment: Gut sac viability (active glucose transport). The note with it: verapamil; exception: 40 μg/ml combined with 1 ng/ml [3H]vinblastine.
For data set [2], the system named is rat everted gut sacs. The note with it: male, Wistar.

In the case of `COc1ccc(CCN(C)CCCC(C#N)(c2ccc(OC)c(OC)c2)C(C)C)cc1OC` (stereo not drawn) [Verapamil, verapamil], the “tissue viability (glucose actively transported)” value in the data set on rat everted gut sacs [1] is recorded as “good tissue viability”. Also, in the data set on rat everted gut sacs [2], the “effect on tissue uptake and serosal transfer of [14C]doxorubicin” value was “significantly (p<0.05, unpaired student T-test) increased”; the “increase of [14C]doxorubicin uptake and accumulation into the tissue” value is on record as 2 fold.
